{"source": "patent US20200016152A1", "about": "“TREATMENT OF DISEASES” (Ampio Pharmaceuticals, Inc., priority 2010, published 2020)", "key": {"[1]": {"test_system": "human retinal endothelial cells", "test": "Actin stress fiber formation (rhodamine-phalloidin F-actin staining)", "assay_type": "cell-based", "method": "Passage 12 human retinal endothelial cells (ACBRI 181, Cell Systems Corporation (exclusive distributor for Applied Cell Biology Research Institute), Kirkland, Wash.) were seeded into 16-chamber glass slides coated with 5 μg/cm^2 fibronectin at 5000 cells per well in a total volume of 200 μl of EGM-2 medium (Lonza). The slides were cultured in a 37° C. incubator with 5% CO2 for 48 hours with daily medium changes. Then, the test compounds (DA-DKP, S1P and TNFα), diluted in Hanks Balanced Salt Solution (HBSS; Lonza), were added to give the following final concentrations: DA-DKP (100 μM) (Sigma), TNFα (1 ng/ml) (Sigma), and S1P (1 μM) (Sigma). The slides were incubated with the test compounds for 15 minutes or 3 hours in a 37° C. incubator with 5% CO2. After this incubation, the medium was aspirated, and the cells were fixed using 3.6% formaldehyde in phosphate buffered saline (PBS) for ten minutes at room temperature. All wells were then washed two times with 100 μl PBS. The cells were permeabilized using a 0.1% Triton X-100 in PBS for 5 minutes. All wells were then washed two times with 100 μl PBS, and 50 μl of a 1:40 dilution of rhodamine-phalloidin (Invitrogen) in PBS was added to the cells to stain for F-actin and left on the cells for 20 minutes at room temperature. All wells were then washed two times with 100 μl PBS. Then 100 μl PBS was added to each well and the cells were observed and photographed using an inverted microscope using a rhodamine (ex530/em590) filter."}, "RhoA": {"test_system": "RhoA", "test": "Rho activation assay (GLISA) in retinal endothelial cells", "assay_type": "cell-based, human", "conditions": "for active Rho A levels induced: thrombin alone", "method": "This experiment was performed using a commercially-available Rho activation assay (GLISA) purchased from Cytoskeleton, Denver, Colo., following the manufacturer's protocol. Briefly, passage 8 or 12 human retinal endothelial cells (ACBRI 181, Applied Cell Biology Research Institute, Kirkland, Wash.) were cultured on fibronectin-coated (1 μg/cm^2) 6-well tissue culture plates using EGM-2 culture medium (Lonza) for 24 hours in a 37° C. incubator with 5% CO2 (30,000 cells/well in total volume of 3 ml). Then, the medium was aspirated and replaced with Ultraculture medium supplemented with 0.1% fetal bovine serum, L-glutamine, sodium pyruvate, penicillin/streptomycin and ITSS (insulin, transferrin sodium selenium) (all from Lonza) to serum starve the cells and reduce the background level of RhoA. The cells were cultured for 24 hours in a 37° C. incubator with 5% CO2. Test compounds diluted in HBSS were placed in the incubator to equilibrate before addition to the cells. Then, 150 μl of each test compound was added to the appropriate culture wells, and the plates were incubated in the incubator for an additional 15 minutes. Then, thrombin was added to appropriate wells. After 1 minute, the cells were washed one time with 1.5 ml phosphate buffered saline and were then lysed with 100 μl GLISA lysis buffer supplemented with protease inhibitors. The extracts were scraped, transferred to microcentrifuge tubes and transferred to ice to preserve the active form of RhoA. All extracts were then cleared of debris by spinning at 10,000 rpms for 2 minutes at 4° C. The supernatants were transferred to new tubes and placed back on ice. Aliquots of each extract were removed for the GLISA assay and for protein determinations. All protein concentrations were within 10%, and the extracts were used at the achieved concentrations (equates to 15 total protein per well). The GLISA assay was performed using the reagents supplied in the kit."}, "[2]": {"test_system": "passage 6 human retinal endothelial cells", "test": "ECIS transendothelial electrical resistance (TER), passage 6 retinal endothelial cells", "assay_type": "cell-based", "conditions": "for ECIS as compared to untreated cells: monitored 50 hours", "method": "Assays were performed to determine the effect of MR-DKP (a diketopiperazine wherein R^1 in formula I is the side chain of methionine and R^2 is side chain of arginine) on transendothelial electrical resistance (TER) of passage 6 human retinal endothelial cells (Applied Cell Systems Corporation (exclusive distributor for Applied Cell Biology Research Institute), Kirkland, Wash.). Electrical resistance was measured using the electric cell-substrate impedance sensing (ECIS) system (ECISZθ, obtained from Applied Biophysics) with 8-well multiple electrode plates (8W10E). Each well of the plates was stabilized by adding 250 μl of 10 mM cysteine (Sigma) in sterile water to each well and incubating for 30 minutes at room temperature. The wells were then washed two times with 150 μl of sterile water to remove the cysteine. All wells were then coated with 10 μg/cm^2 collagen by diluting the stock solution (0.5 mg/ml Type IV collagenin 0.25% acetic acid (Sigma) in sterile water and adding 150 μl of the resulting solution to each well. The collagen solution was incubated on the plates at 37° C. for 120 minutes and then removed. The wells were washed two times with 400 μl sterile water to remove the collagen. Next, 400 μl of EGM-2 culture medium (Lonza) was added to each well. The plates were connected to the ECISZθ system and were electrically stabilized. The EGM-2 medium was aspirated and replaced with 400 μl of EGM-2 culture medium containing 100,000 cells per well. The plates were reconnected to the ECISZθ system and incubated for 24 hours in a 37° C. incubator with 5% CO2. The EGM-2 medium was aspirated and replaced with 400 μl of EGM-2 culture medium. The plates were reconnected to the ECISZθ system and incubated for 2 hours in a 37° C. incubator with 5% CO2. Solutions of the test compound in HBSS were prepared and placed in the incubator to equilibrate. The test compound was then added to appropriate wells at the following final concentrations: MR-DKP (50 μM and 100 ECIS (resistance) was monitored for 50 hours.\nExample 5 was repeated, except that the diketopiperazine used was YE-DKP (a diketopiperazine wherein R^1 in formula I is the side chain of glutamic acid and R^2 is the side chain of tyrosine). […] The increase was about 20% at its maximum."}, "[3]": {"conditions": "passage 12 cells, 1.0 μM + 0.1 U/ml thrombin"}, "[4]": {"conditions": "passage 12 cells, 1.0 μM, no thrombin"}}, "data": [{"compound": "CCCCCCCCCCCCC/C=C/[C@@H](O)[C@@H](N)COP(=O)(O)O", "note": "[S1P, sphingosine-1 phosphate, reference compound]", "values": [{"measurement": "F-actin staining pattern", "setting": "[1]; S1P 1 μM alone, 15 minutes and 3 hours", "result": "actin cortical rings"}]}, {"compound": "COc1cc2ncnc(Nc3ccc(Oc4ccccc4)cc3)c2cc1OC", "note": "[Src-1 Inhibitor]", "values": [{"measurement": "Mean OD (active RhoA)", "setting": "RhoA; [3]", "result": 0.534}, {"measurement": "Percent Inhibition vs. Thrombin", "setting": "RhoA; [3]", "result": 85.85, "unit": "%"}, {"measurement": "Mean OD (active RhoA)", "setting": "RhoA; [4]", "result": 0.349}, {"measurement": "Percent Inhibition vs. Untreated Control", "setting": "RhoA; [4]", "result": 23.21, "unit": "%"}]}, {"compound": "O=C(O)CC[C@@H]1NC(=O)[C@H](Cc2ccc(O)cc2)NC1=O", "note": "[YE-DKP]", "values": [{"measurement": "ECIS as compared to untreated cells", "setting": "[2]; 50 μM", "result": "did not show a significant increase in ECIS"}, {"measurement": "ECIS increase at its maximum", "setting": "[2]; 100 μM", "result": "about 20%"}, {"measurement": "persistence of ECIS increase", "setting": "[2]; 100 μM", "result": "persisted for the remainder of the experiment"}, {"measurement": "start of ECIS increase", "setting": "[2]; 100 μM", "result": "about 6 hours"}, {"measurement": "time at which ECIS increase became significant", "setting": "[2]; 100 μM", "result": "about 12 hours"}, {"measurement": "time at which resistance increased again", "setting": "[2]; 100 μM", "result": "about 29 hours"}, {"measurement": "time at which resistance returned to the levels of the control", "setting": "[2]; 100 μM", "result": "around 28 hours"}, {"measurement": "time of reaching significance again", "setting": "[2]; 100 μM", "result": "about 33 hours"}, {"measurement": "ECIS as compared to untreated cells", "setting": "[2]; 100 μM", "result": "increase in ECIS"}]}, {"compound": "TNFα [reference compound]", "values": [{"measurement": "F-actin staining pattern (stress fibers)", "setting": "[1]; TNFα 1 ng/ml alone, 15 minutes to 3 hours", "result": "stress fibers were seen at all times"}]}, {"compound": "Thrombin", "values": [{"measurement": "Mean OD (active RhoA)", "setting": "RhoA; passage 8 cells, 0.1 U/ml thrombin alone", "result": 0.561}, {"measurement": "active Rho A levels induced", "setting": "RhoA; passage 8 cells", "result": "very high"}, {"measurement": "Mean OD (active RhoA)", "setting": "RhoA; passage 12 cells, 0.1 U/ml thrombin alone", "result": 1.013}, {"measurement": "active Rho A levels induced", "setting": "RhoA; passage 12 cells", "result": "very high"}]}]}
